{"source": "BindingDB's records for doi:10.7270/Q2MP51PC", "about": "(Pcmd, 2008)", "data": [{"biological_target": "T1, Complement C1s subcomponent (Homo sapiens, UniProt P09871)", "T1 sequence (P09871 whole entry)": "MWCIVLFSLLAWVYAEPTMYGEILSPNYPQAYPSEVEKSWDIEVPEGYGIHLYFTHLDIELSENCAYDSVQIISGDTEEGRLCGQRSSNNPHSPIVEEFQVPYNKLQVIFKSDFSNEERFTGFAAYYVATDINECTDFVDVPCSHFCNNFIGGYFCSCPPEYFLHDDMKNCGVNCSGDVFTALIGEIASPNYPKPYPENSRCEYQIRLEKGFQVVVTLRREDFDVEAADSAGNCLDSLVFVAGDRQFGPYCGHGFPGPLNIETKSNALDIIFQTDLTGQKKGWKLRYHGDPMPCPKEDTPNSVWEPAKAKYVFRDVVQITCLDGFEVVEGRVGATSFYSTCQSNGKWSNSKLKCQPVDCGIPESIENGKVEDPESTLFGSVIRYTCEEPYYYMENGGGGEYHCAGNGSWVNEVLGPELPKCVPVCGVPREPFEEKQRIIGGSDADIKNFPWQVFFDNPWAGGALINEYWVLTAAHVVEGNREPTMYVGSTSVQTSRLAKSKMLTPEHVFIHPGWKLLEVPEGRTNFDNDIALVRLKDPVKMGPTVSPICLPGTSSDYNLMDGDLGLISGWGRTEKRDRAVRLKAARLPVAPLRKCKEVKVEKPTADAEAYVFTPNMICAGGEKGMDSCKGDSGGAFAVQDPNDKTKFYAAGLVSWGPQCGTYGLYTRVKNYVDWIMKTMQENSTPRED", "experiment": "C1s inhibitor IC50 values, dose response, biochemical (AID 787)", "units": {"IC50": "µM"}, "values": [{"smiles": "Cc1ccc(S(=O)(=O)n2nc(OC(=O)c3cccs3)cc2N)cc1", "IC50": "> 50"}, {"smiles": "CCOC(=O)c1c(C)n(C(=O)c2ccco2)c(=O)n1C(=O)c1ccco1", "IC50": 8.54}, {"smiles": "C#CCOC(=O)c1ccccc1C(=O)n1nnc2ccccc21", "IC50": 4.26}, {"smiles": "CCSc1ccccc1C(=O)n1nnc2ccccc21", "IC50": 31}, {"smiles": "O=C(c1ccc2c(c1)OCO2)n1nnc2ccccc21", "IC50": 0.85}, {"smiles": "O=C(O)[C@@H](c1ccccc1)N1Cc2ccccc2C1=O", "IC50": "> 50"}, {"smiles": "O=C(O)COCc1nc2ccccc2[nH]1", "IC50": "> 50"}, {"smiles": "COc1cccc(C2=Nc3nnnn3C(c3cccc(OC)c3OC)C2)c1", "note": "(stereo not given)", "IC50": "> 50"}, {"smiles": "COc1cccc(N2C(=O)N(c3ccccc3Cl)C3CS(=O)(=O)CC32)c1", "note": "(stereo not given) [1-(2-chlorophenyl)-3-(3-methoxyphenyl)tetrahydro-1H-thieno[3,4-d]imidazol-2(3H)-one 5,5-dioxide]", "IC50": "> 50"}, {"smiles": "CCN1CCN(c2ccc(-n3c(C)nc4c(cnn4-c4ccccc4Cl)c3=O)cc2)CC1", "note": "[1-(2-chlorophenyl)-5-[4-(4-ethyl-1-piperazinyl)phenyl]-6-methyl-4-pyrazolo[3,4-d]pyrimidinone]", "IC50": "> 50"}, {"smiles": "COc1ccc(-c2nc(SC)n(C(=O)c3ccco3)n2)cc1", "note": "[1-(2-furoyl)-3-(4-methoxyphenyl)-5-(methylthio)-1H-1,2,4-triazole]", "IC50": 15.6}, {"smiles": "O=C(c1ccco1)N1C(=O)c2cccc3cccc1c23", "note": "[1-(2-furoyl)benzo[cd]indol-2(1H)-one]", "IC50": "> 50"}, {"smiles": "CCOC(=O)C1CCN(C(=O)c2cc(OCC)c(OCC)c(OCC)c2)CC1", "note": "[1-(3,4,5-triethoxybenzoyl)isonipecotic acid ethyl ester]", "IC50": "> 50"}, {"smiles": "O=C(c1csc2c1CCCC2)n1cccn1", "note": "[1-(4,5,6,7-tetrahydro-1-benzothien-3-ylcarbonyl)-1H-pyrazole]", "IC50": 3.83}, {"smiles": "CCOC(=O)c1nnn(-c2nonc2N)c1CN(C)C1CCCCC1", "note": "[1-(4-amino-1,2,5-oxadiazol-3-yl)-5-[[cyclohexyl(methyl)amino]methyl]-4-triazolecarboxylic acid ethyl ester]", "IC50": "> 50"}, {"smiles": "CCOc1ccc(-n2c(O)cc(N3CCN(c4ccccc4F)CC3)c2O)cc1", "note": "[1-(4-ethoxyphenyl)-3-[4-(2-fluorophenyl)-1-piperazinyl]-2,5-pyrrolidinedione]", "IC50": "> 50"}, {"smiles": "Cc1ccc(Cn2ncc3c(N4CCN(c5ccccc5C)CC4)ncnc32)cc1", "note": "[1-(4-methylbenzyl)-4-[4-(2-methylphenyl)-1-piperazinyl]-1H-pyrazolo[3,4-d]pyrimidine]", "IC50": "> 50"}, {"smiles": "CC(C)CN(CC(C)C)S(=O)(=O)N1CCC(C(=O)NCc2ccc(F)cc2)CC1", "note": "[1-(diisobutylsulfamoyl)-N-(4-fluorobenzyl)isonipecotamide]", "IC50": "> 50"}, {"smiles": "CCOC(=O)C1CCN(C(=O)CSc2ccccc2)CC1", "note": "[1-[1-oxo-2-(phenylthio)ethyl]-4-piperidinecarboxylic acid ethyl ester]", "IC50": "> 50"}, {"smiles": "COc1cc(-c2nnc(SCC(=O)c3cc(C)n(CC4CCCO4)c3C)o2)cc(OC)c1OC", "note": "(stereo not given) [1-[2,5-dimethyl-1-(2-oxolanylmethyl)-3-pyrrolyl]-2-[[5-(3,4,5-trimethoxyphenyl)-1,3,4-oxadiazol-2-yl]thio]ethanone]", "IC50": "> 50"}, {"smiles": "CCCC(=O)n1nc(-c2ccco2)nc1SCc1ccccc1", "note": "[1-[3-(2-furanyl)-5-(phenylmethylthio)-1,2,4-triazol-1-yl]-1-butanone]", "IC50": "> 50"}, {"smiles": "CCC(=O)n1nc(-c2ccco2)nc1SCc1ccccc1", "note": "[1-[3-(2-furanyl)-5-(phenylmethylthio)-1,2,4-triazol-1-yl]-1-propanone]", "IC50": "> 50"}, {"smiles": "COc1ccc(C(=O)n2nnc3ccccc32)cc1Br", "note": "[1-benzotriazolyl-(3-bromo-4-methoxyphenyl)methanone]", "IC50": 5.59}, {"smiles": "Cn1c(=O)c2[nH]c(NCC3CCCO3)nc2n(-c2ccccc2)c1=O", "note": "(stereo not given) [1-methyl-8-(2-oxolanylmethylamino)-3-phenyl-7H-purine-2,6-dione]", "IC50": "> 50"}, {"smiles": "O=C(Nc1cccc(F)c1)c1c(F)c(F)c(F)c(F)c1F", "note": "[2,3,4,5,6-pentafluoro-N-(3-fluorophenyl)benzamide]", "IC50": "> 50"}, {"smiles": "Cc1nc(CNS(=O)(=O)c2cc(C)c(C)cc2C)cs1", "note": "[2,4,5-trimethyl-N-[(2-methyl-1,3-thiazol-4-yl)methyl]benzenesulfonamide]", "IC50": "> 50"}, {"smiles": "O=C1CCCC2=NC(Nc3nc4ccccc4o3)=NC3(CCCCC3)C12", "note": "(stereo not given) [2-(1,3-benzoxazol-2-ylamino)-5-spiro[1,6,7,8-tetrahydroquinazoline-4,1'-cyclohexane]one]", "IC50": "> 50"}, {"smiles": "COCCn1c(C)cc(C(=O)CSc2nc3ccccc3o2)c1C", "note": "[2-(1,3-benzoxazol-2-ylsulfanyl)-1-[1-(2-methoxyethyl)-2,5-dimethyl-pyrrol-3-yl]ethanone]", "IC50": "> 50"}, {"smiles": "Cc1sc2nc(-c3ccco3)oc(=O)c2c1C", "note": "[2-(2-furanyl)-5,6-dimethyl-4-thieno[2,3-d][1,3]oxazinone]", "IC50": "> 50"}, {"smiles": "Cc1c(NC(=O)C2Cc3ccccc3CN2C(=O)c2ccco2)c(=O)n(-c2ccccc2)n1C", "note": "(stereo not given) [2-(2-furoyl)-N-(3-keto-1,5-dimethyl-2-phenyl-3-pyrazolin-4-yl)-3,4-dihydro-1H-isoquinoline-3-carboxamide]", "IC50": "> 50"}, {"smiles": "Cc1cc(NS(=O)(=O)c2ccc(NC(=O)COc3ccccc3C(C)C)cc2)no1", "note": "[2-(2-isopropylphenoxy)-N-[4-[(5-methylisoxazol-3-yl)sulfamoyl]phenyl]acetamide]", "IC50": "> 50"}, {"smiles": "COc1ccc(CC(=O)Nc2cccc(-c3nnc(-c4cccc(C)c4)o3)c2)cc1OC", "note": "[2-(3,4-dimethoxyphenyl)-N-[3-[5-(3-methylphenyl)-1,3,4-oxadiazol-2-yl]phenyl]acetamide]", "IC50": "> 50"}, {"smiles": "CC(=O)c1cn(CC(=O)NCc2ccc3c(c2)OCO3)c2ccccc12", "note": "[2-(3-acetyl-1-indolyl)-N-(1,3-benzodioxol-5-ylmethyl)acetamide]", "IC50": "> 50"}, {"smiles": "COC(=O)COc1cccc(NC(=O)c2ccccc2)c1", "note": "[2-(3-benzamidophenoxy)acetic acid methyl ester]", "IC50": "> 50"}, {"smiles": "Cc1cc(C)c2c(CC(=O)NCc3ccco3)coc2c1", "note": "[2-(4,6-dimethyl-1-benzofuran-3-yl)-N-(2-furylmethyl)acetamide]", "IC50": "> 50"}, {"smiles": "CN(C)c1ccc(C(=O)c2ccccc2C(=O)O)c(O)c1", "note": "[2-(4-Dimethylamino-2-hydroxy-benzoyl)-benzoic acid]", "IC50": "> 50"}, {"smiles": "O=C(O)CCCC(=O)Nc1ccccc1C(=O)O", "note": "[2-(4-carboxybutanoylamino)benzoic acid]", "IC50": "> 50"}, {"smiles": "COc1ccc(NC(=O)CSC2CCCCC2)cc1", "note": "[2-(cyclohexylthio)-N-(4-methoxyphenyl)acetamide]", "IC50": "> 50"}, {"smiles": "O=C(Cc1ccc(-c2ccccc2)cc1)NCCN1CCOCC1", "note": "[2-Biphenyl-4-yl-N-(2-morpholin-4-yl-ethyl)-acetamide]", "IC50": "> 50"}, {"smiles": "O=c1oc(-c2ccco2)nc2ccccc12", "note": "[2-Furan-2-yl-benzo[d][1,3]oxazin-4-one]", "IC50": 4.62}, {"smiles": "Cc1nn(C)c(C)c1NC(=O)c1ccnn1C", "note": "[2-Methyl-2H-pyrazole-3-carboxylic acid (1,3,5-trimethyl-1H-pyrazol-4-yl)-amide]", "IC50": "> 50"}, {"smiles": "CC(C)(C)NC(=O)C(c1ccco1)N(Cc1ccc2c(c1)OCO2)C(=O)Cn1nnc2ccccc21", "note": "(stereo not given) [2-[1,3-benzodioxol-5-ylmethyl-[2-(1-benzotriazolyl)-1-oxoethyl]amino]-N-tert-butyl-2-(2-furanyl)acetamide]", "IC50": "> 50"}, {"smiles": "CCOc1ccc(NC(=O)CN2CCN(CC(=O)Nc3ccc4c(c3)OCO4)CC2)cc1", "note": "[2-[4-[2-(1,3-benzodioxol-5-ylamino)-2-keto-ethyl]piperazino]-N-p-phenetyl-acetamide]", "IC50": "> 50"}, {"smiles": "CCOC(=O)COc1ccc(S(=O)(=O)NCCC2=CCCCC2)cc1", "note": "[2-[4-[2-(1-cyclohexenyl)ethylsulfamoyl]phenoxy]acetic acid ethyl ester]", "IC50": "> 50"}, {"smiles": "O=C(CN1CCN(CC(=O)Nc2ccccn2)CC1)Nc1ccccn1", "note": "[2-[4-[2-keto-2-(2-pyridylamino)ethyl]piperazino]-N-(2-pyridyl)acetamide]", "IC50": "> 50"}, {"smiles": "CCOC(=O)Cc1nnc(NC(=O)C(CC)Sc2nnc3c4ccccc4n(C)c3n2)s1", "note": "(stereo not given) [2-[5-[2-[(5-methyl-[1,2,4]triazin[5,6-b]indol-3-yl)thio]butanoylamino]-1,3,4-thiadiazol-2-yl]acetic acid ethyl ester]", "IC50": "> 50"}, {"smiles": "COC(=O)Cc1n[nH]c2c1C1(C(=O)N(Cc3ccccc3)c3ccccc31)C(C#N)C(=N)O2", "note": "(stereo not given) [2-[6-amino-5-cyano-2'-oxo-1'-(phenylmethyl)-3-spiro[2H-pyrano[2,3-c]pyrazole-4,3'-indole]yl]acetic acid methyl ester]", "IC50": "> 50"}, {"smiles": "Cc1ccc(-n2c(SCC(=O)N3CCCC3)nc3c(c2=O)SCC3)cc1", "note": "[2-[(2-keto-2-pyrrolidino-ethyl)thio]-3-(p-tolyl)-6,7-dihydrothieno[3,2-d]pyrimidin-4-one]", "IC50": "> 50"}, {"smiles": "CCOC(=O)COc1nc(OC)nc(N2CCOCC2)n1", "note": "[2-[(4-methoxy-6-morpholino-s-triazin-2-yl)oxy]acetic acid ethyl ester]", "IC50": "> 50"}, {"smiles": "CCOC(=O)c1c(-c2ccc(C)o2)csc1NC(=O)CN1CCN(CC)CC1", "note": "[2-[[2-(4-ethyl-1-piperazinyl)-1-oxoethyl]amino]-4-(5-methyl-2-furanyl)-3-thiophenecarboxylic acid ethyl ester]", "IC50": "> 50"}]}]}
